Assays:
[1] = target: T1, human metabotropic glutamate receptor mGluR5 (Homo sapiens, UniProt P41594); assay: Cytosolic calcium studies with stably transfected cells (h5CHO), functional assay of mGluR5 receptors; type: cell-based; settings: for h left shift / EC50: Table A1; for h left shift: left shift of agonist EC50, dose response curves in the presence of 10 µM modulator or vehicle; for h left shift / IC50: h5CHO cells; for EC50: positive modulators, h5CHO cells preincubated with modulator, stimulated by an EC20 concentration of L-glutamate, read-out: hEC50; for IC50: Table A2, negative modulation, compounds added 5 minutes before L-quisqualic acid (~80% of the maximal signal), read-out: hIC50
T1 construct: expressed in transfected cells; host or cells: CHO-K1 (h5CHO), IPTG-inducible
Procedure: Chinese hamster ovary cells (CHO-K1 cells), stably transfected for inducible expression of a human metabotropic glutamate receptor mGluR5 to form a cell line called h5CHO, are seeded into black clear bottom 96 well plates at a density of 35.000 cells per well. The standard growth medium used (Dulbecco's modified Eagle Medium, DMEM plus L-proline) contains the appropriate inducer isopropyl-β-D-thiogalactopyranosid (IPTG) to achieve optimal receptor expression. One day after seeding the growth medium is exchanged for reconstituted Ca-Kit (Molecular Devices, USA) and incubated for one hour. Ca-Kit is reconstituted in an assay buffer containing 20 mM HEPES pH 7.4, glutamic-pyruvate transaminase, pyridoxal phosphate and sodium pyruvate in Hank's balanced salt solution (HBBS). Agonistic compounds to the receptor elicit increases in cytosolic calcium which can be measured as increases in fluorescence signals by use of a fluorescence imaging plate reader (Molecular Devices). To analyze their potency to negatively modulate the Ca-response test compounds, dissolved in a final DMSO concentration of 0.5%, are added on-line 5 minutes before the agonist to the receptor (L-quisqualic acid at a concentration giving ~80% of the maximal signal). EC50 values for positive allosteric modulators were determined by stimulating the cells which have been preincubated the modulators by an EC20 concentration of L-glutamate.
(§1) The fluorescence signal increase after addition of agonist reflects the increase of cytosolic calcium. Inconsistencies in the amount of cells per well are normalised by using the spatial uniformity correction of the FLIPR operating software Screenworks. The mean of replicated temporal data (n=3-5) is calculated and used for graphical representation. For the evaluation of the pharmacology, the calcium changes in response to different concentrations of agonist or antagonist are determined using a maximum minus minimum (MaxMin) calculation.
(§2) All responses (RFU-values) are determined as percentage of control (= maximum response). EC50 and IC50 are calculated according the logistic equation using XLFit (IDBS, UK) or Prism 4.0 (GraphPad Software, USA). The compounds of the present invention have a potency (EC50 or IC50) within a range of about 0.5 nM to about 100 µM. The left shifts for positive or slient allosteric modulators (PAMs or SAMs, respectively) are determined by comparison of EC50 values from agonist dose response curves run in the presence of 10 µM modulator or vehicle (Vanejevs et al., J. Med. Chem., 2008, 51, 634-647).

[2] = target: T2, mGluR5 receptors (Rattus norvegicus, UniProt P31424); assay: Cytosolic calcium studies with astrocytes (FLIPR), functional assay of mGluR5 receptors; type: cell-based; settings: for r left shift: Table A1, left shift of quisqualate EC50 in the presence and absence of 10 µM modulator; for EC50: Table A1, positive modulators, fixed concentration of quisqualate (normally 10-30 nM), read-out: rEC50
T2 construct: Primary astrocyte cultures are prepared from cortices of newborn rats; endogenous in cells; host or cells: primary cortical astrocytes from Sprague-Dawley rat pups (2-4 d old)
Procedure: Primary astrocyte cultures are prepared from cortices of newborn rats as described by Booher and Sensenbrenner (1972, Neurobiology 2(3):97-105). Briefly, Sprague-Dawley rat pups (2 - 4 d old) are decapitated and neocortices are dissected, disintegrated with a nylon filter (pore size 80 µm) and carefully triturated. The cell suspension is plated on poly-D-lysine pre-coated flasks (Costar, Netherlands) and cultivated in Dulbecco's Modified Eagle's Medium (DMEM, Invitrogen, Germany) supplemented with 10% foetal calf serum (FCS, Sigma, Germany), 4 mM glutamine and 50 µg/ml gentamycin (both Biochrom, Germany) at 37°C in a humidified atmosphere of 5% CO2/ 95% air for 7 days with exchanging the medium at day 2 and 6.
After 7 days in vitro (DIV), cells are shaken overnight at 250 rpm to remove oligodendrocytes and microglia. The next day, astrocytes are rinsed twice with CMF-PBS (calcium- and magnesium-free phosphate buffered saline, Biochrom, Germany), trypsinized and subplated on poly-D-lysine pre-coated 96-well plates (Greiner, Germany) at a density of 40,000 cells/well. 24 h after establishing the secondary culture the astrocytes are rinsed with PBS^++ (phosphate buffered saline, Biochrom, Germany) and fed with astrocyte-defined medium (ADM) consisting of DMEM containing 1x G5-supplement (Invitrogen, Germany), 0.5 µg/ml heparan sulfate, and 1.5 µg/ml fibronectin (both Sigma, Germany) (Miller et al., (1993) Brain Res. 618(1):175-8). 3 days later the medium is exchanged and the cells incubated for another 2-3 days, so that at the time of experiments astrocytes are 14-15 DIV.
The increase of cytosolic calcium after stimulation with the mGluR5 agonist L-quisqualate is measured using a fluorometric imaging plate reader (FLIPR) and the Ca-Kit (both Molecular Devices). Prior to addition of agonist or antagonist the medium is aspirated and cells are loaded for 2 h at RT with 150 µl of loading buffer consisting of Ca-sensitive dye reconstituted in sodium chloride (123 mM), potassium chloride (5.4 mM), magnesium chloride (0.8 mM), calcium chloride (1.8 mM), D-glucose (15 mM), and HEPES (20 mM), pH 7.3. Subsequently, plates are transferred to FLIPR to detect calcium increase with the addition of L-quisqualate (100 nM) measured as relative fluorescence units (RFU). If antagonists are tested, these compounds are pre-incubated for 10 minutes at RT before addition of the respective agonist.
For positive modulators, concentration-response curves for quisqualate are performed in the presence and absence of 10 µM modulator to determine the extent of potentiation / agonist potency increase. Thereafter, concentration-response curves for the positive modulator are performed in the presence of a fixed concentration of quisqualate showing the biggest window for potentiation (normally 10-30 nM).
as §1, §2

T2 sequence (P31424 21-1203): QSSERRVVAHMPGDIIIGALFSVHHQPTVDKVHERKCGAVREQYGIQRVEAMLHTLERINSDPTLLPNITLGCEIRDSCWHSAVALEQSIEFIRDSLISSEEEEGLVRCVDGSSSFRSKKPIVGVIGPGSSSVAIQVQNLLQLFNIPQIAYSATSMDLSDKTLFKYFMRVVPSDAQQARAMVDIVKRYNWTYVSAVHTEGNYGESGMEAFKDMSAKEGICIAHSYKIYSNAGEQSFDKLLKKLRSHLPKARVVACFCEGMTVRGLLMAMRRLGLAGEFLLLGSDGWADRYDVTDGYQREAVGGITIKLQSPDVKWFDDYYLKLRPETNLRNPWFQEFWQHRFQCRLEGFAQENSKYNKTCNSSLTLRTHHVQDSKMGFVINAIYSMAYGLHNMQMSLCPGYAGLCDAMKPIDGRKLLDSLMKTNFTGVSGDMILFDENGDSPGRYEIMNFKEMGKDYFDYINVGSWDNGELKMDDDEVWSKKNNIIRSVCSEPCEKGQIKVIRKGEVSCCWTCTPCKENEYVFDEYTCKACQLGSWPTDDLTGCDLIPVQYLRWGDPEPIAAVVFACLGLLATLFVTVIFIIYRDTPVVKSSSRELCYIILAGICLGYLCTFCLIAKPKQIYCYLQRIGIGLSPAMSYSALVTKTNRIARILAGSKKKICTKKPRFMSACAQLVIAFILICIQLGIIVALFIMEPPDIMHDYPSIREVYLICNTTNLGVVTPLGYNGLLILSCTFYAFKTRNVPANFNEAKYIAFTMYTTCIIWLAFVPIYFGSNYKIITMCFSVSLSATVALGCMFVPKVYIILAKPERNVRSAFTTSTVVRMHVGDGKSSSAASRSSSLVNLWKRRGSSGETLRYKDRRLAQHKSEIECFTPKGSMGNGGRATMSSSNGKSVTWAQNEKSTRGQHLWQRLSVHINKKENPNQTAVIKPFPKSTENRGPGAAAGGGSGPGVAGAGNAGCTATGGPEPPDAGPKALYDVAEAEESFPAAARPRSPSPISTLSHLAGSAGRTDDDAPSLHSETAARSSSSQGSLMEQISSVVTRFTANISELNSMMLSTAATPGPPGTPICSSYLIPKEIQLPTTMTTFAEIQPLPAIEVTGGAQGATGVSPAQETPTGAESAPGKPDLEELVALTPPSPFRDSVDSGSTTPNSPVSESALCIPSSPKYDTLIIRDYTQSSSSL
T1 sequence (P41594 21-1212): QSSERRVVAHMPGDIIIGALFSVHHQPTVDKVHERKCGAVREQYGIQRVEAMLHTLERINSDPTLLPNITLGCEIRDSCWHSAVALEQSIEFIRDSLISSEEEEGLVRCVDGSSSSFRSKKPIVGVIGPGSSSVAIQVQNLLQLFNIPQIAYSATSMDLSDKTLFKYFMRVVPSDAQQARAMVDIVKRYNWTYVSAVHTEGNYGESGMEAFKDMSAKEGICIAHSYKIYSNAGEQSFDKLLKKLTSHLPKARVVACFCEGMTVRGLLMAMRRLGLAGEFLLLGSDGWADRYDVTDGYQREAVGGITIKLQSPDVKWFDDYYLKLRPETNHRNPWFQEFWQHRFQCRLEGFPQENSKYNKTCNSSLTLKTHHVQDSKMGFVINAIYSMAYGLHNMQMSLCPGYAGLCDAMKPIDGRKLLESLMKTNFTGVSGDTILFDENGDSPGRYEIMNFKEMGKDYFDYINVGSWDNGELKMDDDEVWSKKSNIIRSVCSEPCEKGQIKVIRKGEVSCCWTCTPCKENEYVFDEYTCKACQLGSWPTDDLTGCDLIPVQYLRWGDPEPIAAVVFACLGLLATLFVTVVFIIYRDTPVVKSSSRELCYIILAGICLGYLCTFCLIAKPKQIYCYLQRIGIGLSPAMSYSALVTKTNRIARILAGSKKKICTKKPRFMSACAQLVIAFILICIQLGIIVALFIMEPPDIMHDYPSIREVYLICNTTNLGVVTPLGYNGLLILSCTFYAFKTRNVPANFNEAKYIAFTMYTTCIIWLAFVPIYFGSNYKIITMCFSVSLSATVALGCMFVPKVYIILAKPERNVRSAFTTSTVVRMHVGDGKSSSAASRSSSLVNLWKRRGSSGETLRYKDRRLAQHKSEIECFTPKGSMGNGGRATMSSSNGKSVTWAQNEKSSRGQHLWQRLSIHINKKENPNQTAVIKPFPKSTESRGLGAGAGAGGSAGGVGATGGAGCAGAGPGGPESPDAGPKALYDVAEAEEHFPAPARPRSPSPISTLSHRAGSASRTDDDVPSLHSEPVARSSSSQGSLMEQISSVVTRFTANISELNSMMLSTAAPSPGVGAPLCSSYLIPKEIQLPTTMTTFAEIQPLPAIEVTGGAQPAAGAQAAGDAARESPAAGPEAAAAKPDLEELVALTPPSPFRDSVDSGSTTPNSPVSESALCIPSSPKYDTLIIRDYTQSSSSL

SMILES | h left shift [1] | IC50 [1] [nM] | other results
COC1CCCc2ncc(C#Cc3ccccc3)cc21 (racemic) [Example 1, (rac)-5-Methoxy-3-(phenylethynyl)-5,6,7,8-tetrahydroquinoline] | 2.6-fold | – | EC50 [1]: 32.1 nM; r left shift [2]: 4.9-fold; EC50 [2]: 22.7 nM
COC1CCCc2ncc(C#Cc3cccc(N)n3)cc21 (racemic) [Example 3, (rac)-6-((5-Methoxy-5,6,7,8-tetrahydroquinolin-3-yl)ethynyl)pyridin-2-amine] | – | 4230 | –
COC1CC(C)(C)Cc2ncc(C#Cc3ccccc3)cc21 (racemic) [Example 4, (rac)-5-Methoxy-7,7-dimethyl-3-(phenylethynyl)-5,6,7,8-tetrahydroquinoline] | – | 341 | –
COC1CC(C)(C)Cc2ncc(C#Cc3cccc(N)n3)cc21 (racemic) [Example 5, (rac)-6-((5-Methoxy-7,7-dimethyl-5,6,7,8-tetrahydroquinolin-3-yl)ethynyl)pyridin-2-amine] | – | 66.7 | IC50 ([2]; Table A2, pre-incubated 10 minutes before L-quisqualate (100 nM), read-out: rIC50): 45.7 nM
COC1CC(C)(C)Cc2ncc(C#Cc3cn4ccccc4n3)cc21 (racemic) [Example 6, (rac)-3-(Imidazo[1,2-a]pyridin-2-ylethynyl)-5-methoxy-7,7-dimethyl-5,6,7,8-tetrahydroquinoline] | – | 695 | –
COC1CC(C)(C)Oc2ncc(C#Cc3cccc(N)n3)cc21 (racemic) [Example 7, (rac)-6-((4-Methoxy-2,2-dimethyl-3,4-dihydro-2H-pyrano[2,3-b]pyridin-6-yl)ethynyl)pyridin-2-amine] | – | 203 | –
COC1CC(C)(C)Oc2ncc(C#Cc3cn4ccccc4n3)cc21 (racemic) [Example 8, (rac)-6-(Imidazo[1,2-a]pyridin-2-ylethynyl)-4-methoxy-2,2-dimethyl-3,4-dihydro-2H-pyrano[2,3-b]pyridine] | – | 225 | –
O=C1NCC2(CCCc3ncc(C#Cc4ccccc4)cc32)O1 (racemic) [Example 10, (rac)-3'-(Phenylethynyl)-7',8'-dihydro-6'H-spiro[oxazolidine-5,5'-quinolin]-2-one] | 1.8-fold | – | –
CN1CC2(CCCc3ncc(C#Cc4ccccc4)cc32)OC1=O (racemic) [Example 11, (rac)-3-Methyl-3'-(phenylethynyl)-7',8'-dihydro-6'H-spiro[oxazolidine-5,5'-quinolin]-2-one] | 1.8-fold | – | EC50 [1]: 53.7 nM; r left shift [2]: 2.9-fold; EC50 [2]: 58.6 nM
O=C1OC2(CCCc3ncc(C#Cc4ccccc4)cc32)CN1c1ccccc1 (racemic) [Example 12, (rac)-3-Phenyl-3'-(phenylethynyl)-7',8'-dihydro-6'H-spiro[oxazolidine-5,5'-quinolin]-2-one] | 1.9-fold | – | EC50 [1]: 966 nM; EC50 [2]: 856 nM
CN1CCO[C@@H]2c3cc(C#Cc4ccccc4)cnc3CC[C@@H]21 (racemic) [Example 13, (rac)-cis-4-Methyl-9-(phenylethynyl)-3,4,4a,5,6,10b-hexahydro-2H-[1,4]oxazino[2,3-f]quinoline] | 1.7-fold | – | EC50 [1]: 425 nM; r left shift [2]: 1.7-fold
CCN1CCO[C@@H]2c3cc(C#Cc4ccccc4)cnc3CC[C@@H]21 (racemic) [Example 14, (rac)-cis-4-Ethyl-9-(phenylethynyl)-3,4,4a,5,6,10b-hexahydro-2H-[1,4]oxazino[2,3-f]quinoline] | 2.2-fold | – | EC50 [1]: 659 nM; r left shift [2]: 3.6-fold; EC50 [2]: 580 nM
CN1CCC2Cc3ncc(C#Cc4ccccc4)cc3CN2C1=O (racemic) [Example 57, (rac)-8-Methyl-3-(phenylethynyl)-9,10,10a,11-tetrahydro-5H-pyrimido[1,6-g][1,6]naphthyridin-7(8H)-one] | – | 190 | –
COC(=O)N1Cc2cc(C#Cc3cccc(F)c3)cnc2[C@H]2CCC[C@H]21 (racemic) [Example 61, (rac)-cis-Methyl 3-((3-fluorophenyl)ethynyl)-7,8,9,9a-tetrahydro-5H-cyclopenta[h][1,6]naphthyridine-6(6aH)-carboxylate] | – | 132 | –
COC(=O)N1Cc2cc(C#Cc3ccccc3)cnc2[C@H]2CCCC[C@H]21 (racemic) [Example 62, (rac)-cis-Methyl 3-(phenylethynyl)-6a,7,8,9,10,10a-hexahydrobenzo[h][1,6]naphthyridine-6(5H)-carboxylate] | – | 1400 | –
COC(=O)N1Cc2cc(C#Cc3cccc(F)c3)cnc2[C@H]2CCCC[C@H]21 (racemic) [Example 63, (rac)-cis-Methyl 3-((3-fluorophenyl)ethynyl)-6a,7,8,9,10,10a-hexahydrobenzo[h][1,6]naphthyridine-6(5H)-carboxylate] | – | 1320 | –
CC(C)(C)C(=O)N1CCc2ncc(C#Cc3cccc(N)n3)cc2C1 [Example 35, 1-(3-((6-Aminopyridin-2-yl)ethynyl)-7,8-dihydro-1,6-naphthyridin-6(5H)-yl)-2,2-dimethylpropan-1-one] | – | 617 | –
CN(C)C(=O)N1CCc2ncc(C#Cc3ccccc3)cc2C1 [Example 44, N,N-Dimethyl-3-(phenylethynyl)-7,8-dihydro-1,6-naphthyridine-6(5H)-carboxamide] | – | 247 | –
CN(C)C(=O)N1CCc2ncc(C#Cc3cccc(N)n3)cc2C1 [Example 47, 3-((6-Aminopyridin-2-yl)ethynyl)-N,N-dimethyl-7,8-dihydro-1,6-naphthyridine-6(5H)-carboxamide] | – | 261 | –
CCN(CC)C(=O)N1CCc2ncc(C#Cc3cccc(C#N)c3)cc2C1 [Example 48, 3-((3-Cyanophenyl)ethynyl)-N,N-diethyl-7,8-dihydro-1,6-naphthyridine-6(5H)-carboxamide] | – | 194 | –
Cc1cccc(C#Cc2cnc3c(c2)CS(=O)(=O)CC3)c1 [Example 68, 3-(m-Tolylethynyl)-7,8-dihydro-5H-thiopyrano[4,3-b]pyridine 6,6-dioxide] | – | 75.5 | –
CC1(C)c2cc(C#Cc3ccccc3)cnc2CCS1(=O)=O [Example 75, 5,5-Dimethyl-3-(phenylethynyl)-7,8-dihydro-5H-thiopyrano[4,3-b]pyridine 6,6-dioxide] | 1.6-fold | – | EC50 [1]: 971 nM
